Experimental data reported in the supplement of paper PMC13380429.

How the values were obtained:
HepG2 [1] = assay: cell viability relative to DMSO; higher = less toxic; conditions: 72 h
Vero E6 [2] = assay: as above; conditions: 72 h
Caco-2 [3] = assay: as above; conditions: 72 h
Calu-3 [4] = assay: as above; conditions: 72 h
U2OS [5] = assay: as above; conditions: 72 h
[6] = system: A549-ACE2 infected with SARS-CoV-2; assay: SARS-CoV-2 infection rate relative to DMSO; higher = more infection; conditions: 24 h
[7] = system: A549-ACE2 infected with SARS-CoV-2; assay: cell count relative to DMSO; higher = less toxic; conditions: 24 h
A549-ACE2 [8] = assay: phospholipidosis EC50; higher = less potent phospholipidosis inducer
A549-ACE2 [9] = assay: drug-induced phospholipidosis relative to tamoxifen; higher = more phospholipidosis
[10] = system: A549-ACE2 infected with SARS-CoV-2; assay: morphology score (similarity to uninfected cells); higher = more like uninfected cells; conditions: 24 h
HepG2 [11] = assay: drug sensitivity score (DSS) for viability; higher = more toxic; extreme values may be limits of the assay; conditions: 72 h
Vero E6 [12] = assay: as above; conditions: 72 h
Caco-2 [13] = assay: as above; conditions: 72 h
Calu-3 [14] = assay: as above; conditions: 72 h
U2OS [15] = assay: as above; conditions: 72 h
HepG2 [16] = assay: relative viability EC50 (midpoint between 100% and the lowest measured viability); higher = less toxic; conditions: 72 h
Vero E6 [17] = assay: as above; conditions: 72 h
Caco-2 [18] = assay: as above; conditions: 72 h
Calu-3 [19] = assay: as above; conditions: 72 h
U2OS [20] = assay: as above; conditions: 72 h

FC(F)(F)c1cc(CO[C@H]2CCCN[C@H]2c2ccccc2)cc(C(F)(F)F)c1
Conditions	SARS-CoV-2 infection rate [%]	cell count [%]	cell viability [%]	morphology score	phospholipidosis EC50 [µM]
A549-ACE2 [8], 24 h	–	–	–	–	2.17
A549-ACE2 [8], 48 h	–	–	–	–	2.92
A549-ACE2 [8], 72 h	–	–	–	–	3.8
Caco-2 [3], 1 nM	–	–	108	–	–
Caco-2 [3], 10 nM	–	–	106	–	–
Caco-2 [3], 100 nM	–	–	91.1	–	–
Caco-2 [3], 1000 nM	–	–	87.2	–	–
Caco-2 [3], 10000 nM	–	–	83.6	–	–
Calu-3 [4], 1 nM	–	–	97.4	–	–
Calu-3 [4], 10 nM	–	–	97.6	–	–
Calu-3 [4], 100 nM	–	–	102	–	–
Calu-3 [4], 1000 nM	–	–	101	–	–
Calu-3 [4], 10000 nM	–	–	18.1	–	–
HepG2 [1], 1 nM	–	–	104	–	–
HepG2 [1], 10 nM	–	–	97.9	–	–
HepG2 [1], 100 nM	–	–	97.8	–	–
HepG2 [1], 1000 nM	–	–	107	–	–
HepG2 [1], 10000 nM	–	–	88.4	–	–
U2OS [5], 1 nM	–	–	104	–	–
U2OS [5], 10 nM	–	–	101	–	–
U2OS [5], 100 nM	–	–	105	–	–
U2OS [5], 1000 nM	–	–	96.2	–	–
U2OS [5], 10000 nM	–	–	92.1	–	–
Vero E6 [2], 1 nM	–	–	96.7	–	–
Vero E6 [2], 10 nM	–	–	102	–	–
Vero E6 [2], 100 nM	–	–	102	–	–
Vero E6 [2], 1000 nM	–	–	99.1	–	–
Vero E6 [2], 10000 nM	–	–	89.4	–	–
[6], 0.3 µM	95	–	–	–	–
[6], 3 µM	57	–	–	–	–
[6], 10 µM	16	–	–	–	–
[6], 30 µM	42	–	–	–	–
[7], 0.3 µM	–	100	–	–	–
[7], 3 µM	–	113	–	–	–
[7], 10 µM	–	121	–	–	–
[7], 30 µM	–	69	–	–	–
[10], 0.3 µM	–	–	–	0.12	–
[10], 3 µM	–	–	–	0.72	–
[10], 10 µM	–	–	–	0.92	–
[10], 30 µM	–	–	–	0.01	–

drug-induced phospholipidosis [%], A549-ACE2 [9]
Conditions	0.3 µM	0.833333 µM	3.33333 µM	6.66667 µM	10 µM
24 h	3.76	11.4	79.2	99.1	104
48 h	4.92	7.68	61.5	89.2	97.2
72 h	5.63	5.43	40.2	85	93

Conditions	drug sensitivity score	relative viability EC50 [µM]
Caco-2 [13]	2.5	–
Caco-2 [18]	–	> 10
Calu-3 [14]	4.4	–
Calu-3 [19]	–	3.27
HepG2 [11]	0	–
HepG2 [16]	–	> 10
U2OS [15]	0	–
U2OS [20]	–	> 10
Vero E6 [12]	0	–
Vero E6 [17]	–	> 10

NC(=O)c1cnc(N[C@@H]2CCCC[C@@H]2N)nc1Nc1cccc(-n2nccn2)c1
Conditions	SARS-CoV-2 infection rate [%]	cell count [%]	cell viability [%]	morphology score	phospholipidosis EC50 [µM]
A549-ACE2 [8], 24 h	–	–	–	–	6.68
A549-ACE2 [8], 48 h	–	–	–	–	4.26
Caco-2 [3], 1 nM	–	–	94.6	–	–
Caco-2 [3], 10 nM	–	–	92.9	–	–
Caco-2 [3], 100 nM	–	–	91.5	–	–
Caco-2 [3], 1000 nM	–	–	93	–	–
Caco-2 [3], 10000 nM	–	–	44.7	–	–
Calu-3 [4], 1 nM	–	–	97.3	–	–
Calu-3 [4], 10 nM	–	–	94.5	–	–
Calu-3 [4], 100 nM	–	–	101	–	–
Calu-3 [4], 1000 nM	–	–	69.6	–	–
Calu-3 [4], 10000 nM	–	–	45.2	–	–
HepG2 [1], 1 nM	–	–	101	–	–
HepG2 [1], 10 nM	–	–	101	–	–
HepG2 [1], 100 nM	–	–	99.1	–	–
HepG2 [1], 1000 nM	–	–	95	–	–
HepG2 [1], 10000 nM	–	–	31.7	–	–
U2OS [5], 1 nM	–	–	99.7	–	–
U2OS [5], 10 nM	–	–	96.8	–	–
U2OS [5], 100 nM	–	–	106	–	–
U2OS [5], 1000 nM	–	–	93.9	–	–
U2OS [5], 10000 nM	–	–	46.1	–	–
Vero E6 [2], 1 nM	–	–	98.9	–	–
Vero E6 [2], 10 nM	–	–	100	–	–
Vero E6 [2], 100 nM	–	–	91.1	–	–
Vero E6 [2], 1000 nM	–	–	98.4	–	–
Vero E6 [2], 10000 nM	–	–	81.6	–	–
[6], 0.3 µM	104	–	–	–	–
[6], 3 µM	32	–	–	–	–
[6], 10 µM	72	–	–	–	–
[6], 30 µM	121	–	–	–	–
[7], 0.3 µM	–	94	–	–	–
[7], 3 µM	–	101	–	–	–
[7], 10 µM	–	50	–	–	–
[7], 30 µM	–	1	–	–	–
[10], 0.3 µM	–	–	–	-0.18	–
[10], 3 µM	–	–	–	0.74	–
[10], 10 µM	–	–	–	0.43	–
[10], 30 µM	–	–	–	0.3	–

drug-induced phospholipidosis [%], A549-ACE2 [9]
Conditions	0.3 µM	0.833333 µM	3.33333 µM	6.66667 µM	10 µM
24 h	1.48	0.83	27.1	71.6	99.3
48 h	4.57	2.08	16.9	73.9	–
72 h	3.49	-1.55	12.3	69.8	–

Conditions	drug sensitivity score	relative viability EC50 [µM]
Caco-2 [13]	4.2	–
Caco-2 [18]	–	2.13
Calu-3 [14]	6.7	–
Calu-3 [19]	–	0.917
HepG2 [11]	4.5	–
HepG2 [16]	–	2.57
U2OS [15]	3.9	–
U2OS [20]	–	2.24
Vero E6 [12]	0.7	–
Vero E6 [17]	–	> 10

Clc1ccccc1CNC[C@H]1CC[C@H](CNCc2ccccc2Cl)CC1 [AY-9944]
Conditions	SARS-CoV-2 infection rate [%]	cell count [%]	cell viability [%]	morphology score	phospholipidosis EC50 [µM]
A549-ACE2 [8], 24 h	–	–	–	–	5.85
A549-ACE2 [8], 48 h	–	–	–	–	5.4
A549-ACE2 [8], 72 h	–	–	–	–	4.53
Caco-2 [3], 1 nM	–	–	99.5	–	–
Caco-2 [3], 10 nM	–	–	108	–	–
Caco-2 [3], 100 nM	–	–	99.7	–	–
Caco-2 [3], 1000 nM	–	–	95.1	–	–
Caco-2 [3], 10000 nM	–	–	83.7	–	–
Calu-3 [4], 1 nM	–	–	97.7	–	–
Calu-3 [4], 10 nM	–	–	104	–	–
Calu-3 [4], 100 nM	–	–	106	–	–
Calu-3 [4], 1000 nM	–	–	108	–	–
Calu-3 [4], 10000 nM	–	–	7.3	–	–
HepG2 [1], 1 nM	–	–	104	–	–
HepG2 [1], 10 nM	–	–	96	–	–
HepG2 [1], 100 nM	–	–	110	–	–
HepG2 [1], 1000 nM	–	–	98.1	–	–
HepG2 [1], 10000 nM	–	–	59.2	–	–
U2OS [5], 1 nM	–	–	97.4	–	–
U2OS [5], 10 nM	–	–	102	–	–
U2OS [5], 100 nM	–	–	103	–	–
U2OS [5], 1000 nM	–	–	107	–	–
U2OS [5], 10000 nM	–	–	92.8	–	–
Vero E6 [2], 1 nM	–	–	102	–	–
Vero E6 [2], 10 nM	–	–	104	–	–
Vero E6 [2], 100 nM	–	–	105	–	–
Vero E6 [2], 1000 nM	–	–	94.5	–	–
Vero E6 [2], 10000 nM	–	–	90	–	–
[6], 0.3 µM	86	–	–	–	–
[6], 3 µM	39	–	–	–	–
[6], 10 µM	17	–	–	–	–
[6], 30 µM	34	–	–	–	–
[7], 0.3 µM	–	104	–	–	–
[7], 3 µM	–	123	–	–	–
[7], 10 µM	–	126	–	–	–
[7], 30 µM	–	113	–	–	–
[10], 0.3 µM	–	–	–	0.42	–
[10], 3 µM	–	–	–	0.76	–
[10], 10 µM	–	–	–	0.56	–
[10], 30 µM	–	–	–	0.08	–

drug-induced phospholipidosis [%], A549-ACE2 [9]
Conditions	0.3 µM	0.833333 µM	3.33333 µM	6.66667 µM	10 µM	30 µM
24 h	20.6	37.8	77.7	88.2	96.4	121
48 h	14.1	38.1	78.4	112	116	148
72 h	17.5	29.9	79.3	115	128	157

Conditions	drug sensitivity score	relative viability EC50 [µM]
Caco-2 [13]	0.8	–
Caco-2 [18]	–	> 10
Calu-3 [14]	4.6	–
Calu-3 [19]	–	3.6
HepG2 [11]	2.3	–
U2OS [15]	0	–
U2OS [20]	–	> 10
Vero E6 [12]	0	–
Vero E6 [17]	–	> 10
